Measurements as given in patent US5283236A, “Systemic delivery of polypeptides through the eye” (Orbon Corporation, priority 1992, dated 1994).
Values belong to the compound of their own block, whether it stands above or below them.

Key:
[1] = Insulin absorption from eye drops with absorption enhancers (blood insulin); assay type: in vivo, New Zealand white female rabbits; conditions: eye drops: 1% insulin plus 1% absorption enhancer (Control: no enhancer)
normal rabbits [2] = assay: Blood glucose after insulin eye drops with absorption enhancers; assay type: in vivo, New Zealand white female rabbits; conditions: eye drops: 1% insulin plus 1% absorption enhancer (Control: no enhancer)
[3] = Penetration of insulin into eyeballs with absorption enhancers; assay type: in vivo, rabbits; conditions: 1% insulin plus 1% enhancer (Control: 1% insulin only)
[4] = rabbit, in vivo
Description: The concentrations of peptides in the blood were expressed in ng/ml.

[5] = Blood enkephalin-equivalent concentration after ocular or i.v. enkephalin; assay type: in vivo, New Zealand white female rabbits; conditions: enkephalin 50 ug i.v.
[6] = Enkephalin-equivalent remaining in eye tissues at the end of 12 hr experiment; assay type: in vivo, New Zealand white female rabbits
normal rabbits [7] = assay: Blood glucose after ocular or i.v. glucagon in normal rabbits; assay type: in vivo, New Zealand white female rabbits; conditions: for blood glucose raised to: in 30 min

Compound: C[N+](C)(C)CCCCCCCCCC[N+](C)(C)C [Decamethonium, decamethonium bromide]
Insulin peak Concentration [1]: 10.8 ± 1.8 ng/mL
% Change in Blood Glucose Concentration (normal rabbits [2]): 8%
Blood Glucose Concentration Before (normal rabbits [2]): 90 ± 3 mg %

Absolute amount of insulin in the eyeball [3]: 200 ng
Compound: C[C@H](CCC(=O)NCC(=O)O)[C@H]1CC[C@H]2[C@@H]3[C@H](O)C[C@@H]4C[C@H](O)CC[C@]4(C)[C@H]3C[C@H](O)[C@]12C [Glycocholate, sodium glycocholate]

LHRH eye drop concentration sufficient to reach therapeutic effective blood concentration [4]: ≥ 0.005%
Tx of blood LHRH ([4]; iv): approximately 15 min
Compound: CC(C)C[C@H](NC(=O)CNC(=O)[C@H](Cc1ccc(O)cc1)NC(=O)[C@H](CO)NC(=O)[C@H](Cc1c[nH]c2ccccc12)NC(=O)[C@H](Cc1cnc[nH]1)NC(=O)[C@@H]1CCC(=O)N1)C(=O)N[C@@H](CCCNC(=N)N)C(=O)N1CCC[C@H]1C(=O)NCC(N)=O [LHRH, luteinizing hormone-releasing hormone]

TRH eye drop concentration giving a therapeutic blood concentration [4]: ≥ 0.0025%
Tx of blood TRH ([4]; iv): approximately 10 min
Compound: NC(=O)[C@@H]1CCCN1C(=O)[C@H](Cc1cnc[nH]1)NC(=O)[C@@H]1CCC(=O)N1 [TRH, Thyrotrophin-releasing hormone]

Compound: CC(C)C[C@H](NC(=O)[C@H](Cc1ccccc1)NC(=O)CNC(=O)CNC(=O)[C@@H](N)Cc1ccc(O)cc1)C(=O)O [enkephalin, Leucine-enkephalin (5-L-leucine)]
Tx of decline of blood concentration [5]: less than 30 min
lowest blood concentration ([5]; in 5 hrs): 22 ng/mL
Residual amount of enkephalin remaining in tissues, % of instilled, Total ([6]; 1% enkephalin): 0.1713%
Residual amount of enkephalin remaining in tissues, Amount, Total ([6]; 1% enkephalin): 428.28 ng
Residual amount of enkephalin remaining in tissues, % of instilled, Total ([6]; 5% enkephalin): 0.1136%
Residual amount of enkephalin remaining in tissues, % of instilled, Total ([6]; […] enkephalin): 0.3019%

Compound: Glucagon
blood glucose peak (normal rabbits [7]; 50 ug glucagon i.v., peaked at 30 min): 235 mg %
blood glucose raised to (normal rabbits [7]; 25 ul of 0.2% glucagon instilled): 204 mg %
blood glucose came down to (normal rabbits [7]; 25 ul of 0.2% glucagon instilled, in 2 hrs): 116 mg %
blood glucose raised to (normal rabbits [7]; 25 ul of 1% glucagon instilled): 248 mg %
blood glucose declined to (normal rabbits [7]; 25 ul of 5% glucagon instilled, end of 6 hr): 160 mg %

Compound: polyoxyethylene-9-lauryl ether [BL-9]
% Change in Blood Glucose Concentration (normal rabbits [2]): 42%
Blood Glucose Concentration After (normal rabbits [2]): 56 mg %
Blood Glucose Concentration Before (normal rabbits [2]): 97 mg %
